pIC50: −log10 of the molar value. Calls of active or inactive are those of the source. No rule for the calls is given here.
Tested on: M. tuberculosis H37Rv growth inhibition with meropenem
Assay: dose response, H37Rv, with and without meropenem (AID 434987);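 also: growth over 7 days at 37 °C before Alamar Blue read on day 9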
[1] = M. tuberculosis H37Rv growth inhibition, measured here: IC50 without meropenem
[2] = M. tuberculosis H37Rv growth inhibition, measured here: IC90 without meropenem
[3] = measured here: IC90 with meropenem

Row | Compound | IC50 | pIC50 [1] | IC90 [2] | IC90 [3] | pIC50
1 | CCC(=O)NC(=S)Nc1ccc(NC(=O)c2ccc(C)c([N+](=O)[O-])c2)cc1 | > 100 µM (inactive) | < 4.00 | > 100 µM | > 100 µM | 
2 | O=C(NC(=S)N1CCOCC1)c1ccc([N+](=O)[O-])cc1 | 20.7 µM (inactive) | 4.33 | > 100 µM | > 100 µM | 
3 | Cc1c(C(=O)c2ccccc2)oc2ccc3ccccc3c12 | > 100 µM (inactive) | < 4.00 | > 100 µM | > 100 µM | 
4 | Cc1nc(Nc2ccc(Cl)cc2Cl)sc1C(=O)Nc1ccccc1 | > 100 µM (inactive) | < 4.00 | > 100 µM | > 100 µM | 
5 | COc1ccc(-n2cc(-c3ccccc3)c3c(NN4CCOCC4)ncnc32)cc1 | 22.4 µM (inactive) | 4.48 | 60.3 µM | 36.1 µM | 
6 | Cc1cccc(N2CCN(CC3CCCCC3)CC2)c1C | 48.5 µM (inactive) | 4.04 | > 100 µM | 53.2 µM | 
7 | Cc1ccc(/C=N/NC(=O)c2cccs2)s1 | > 100 µM (inactive) | < 4.00 | > 100 µM | > 100 µM | 
8 | Cc1nn(-c2ccccc2)c(Cl)c1CN(C(=O)CCl)c1cccc2ccccc12 | 18.7 µM (inactive) | 4.48 | 53.4 µM | 48.2 µM | 
9 | O=C(CN1CCN(c2ccccn2)CC1)Nc1ccc(Cl)c(C(F)(F)F)c1 | 58.5 µM (inactive) | 4.05 | > 100 µM | > 100 µM | 
10 | O=C(CCN1C(=O)/C(=C/c2ccccc2F)SC1=S)Nc1ccccn1 | > 100 µM (inactive) | < 4.00 | > 100 µM | > 100 µM | 
11 | Cc1ccnn1CC(=O)N/N=C/c1ccc([N+](=O)[O-])s1 | 91.5 µM (inactive) | 4.05 | 95.9 µM | > 100 µM | 
12 | Cc1ccc(C)c(N2CCN(C3CCCC(C)C3)CC2)c1 (stereo not drawn) | 37.9 µM (inactive) | 4.31 | > 100 µM | 48.2 µM | 
13 | O=C(NC1CCCCC1)C1CCN(c2nccs2)CC1 |  | < 4.00 | > 100 µM | > 100 µM | 4.40
14 | NNC(=O)c1oc2nc(-c3ccco3)cc(-c3ccco3)c2c1N | 13.6 µM (inactive) | 4.62 | > 100 µM | > 100 µM | 
15 | CCOc1ccc(-c2nnc(-c3cccs3)o2)cc1OCC | > 100 µM (inactive) | < 4.00 | > 100 µM | > 100 µM | 
16 | N#Cc1ccc(C23CC4(C2)[C@H](CN(Cc2cccnc2)[C@@H]4c2ccccc2)C3c2ccccc2)cc1 (stereo partly drawn) | 56.2 µM (inactive) | 4.14 | > 100 µM | > 100 µM | 
17 | CC(C)(C)Nc1nc(Nc2ccc([N+](=O)[O-])cc2)nc(NC(C)(C)C)n1 | > 100 µM (inactive) | < 4.00 | > 100 µM | > 100 µM | 
18 | COc1ccc(C(=O)Nc2cccc3c2CCCC3)c(OC)c1 |  | < 4.00 | > 100 µM | > 100 µM | 4.63
19 | COc1ccc(CC2=C(O)c3ccccc3C(=O)C2=O)cc1 | 47.2 µM (inactive) | < 4.00 | > 100 µM | > 100 µM | 

Row | Compound | IC50 | pIC50 [1] | IC90 [2] | IC90 [3] | pIC50
20 | CCOC(=O)Cn1c(C)cc(=O)c2cccc(C)c21 |  | < 4.00 | > 100 µM | > 100 µM | 4.58
21 | O=C(c1cnn2c(C(F)(F)F)cc(-c3cccs3)nc12)N1CCN(C(c2ccccc2)c2ccccc2)CC1 | 26.6 µM (inactive) | 4.49 | > 100 µM | > 100 µM | 
22 | NC(=S)N/N=C/c1ccc(/C=N/NC(N)=S)cc1 |  | < 4.00 | > 100 µM | > 100 µM | 5.60
23 | CC/C(=N\NC(=O)c1ccc(-c2ccccc2)cc1)C12CC3CC(CC(C3)C1)C2 | 40.7 µM (inactive) | 4.39 | 47.9 µM | 43.7 µM | 
24 | O=C(CCN1c2ccccc2Sc2ccccc21)Oc1ccccc1 |  | < 4.00 | > 100 µM | > 100 µM | 5.07
25 | CCCCNC(=O)c1onc(CSc2ccc(F)c(F)c2)c1C(=O)O | 27.8 µM (inactive) | 4.26 | > 100 µM | 56.8 µM | 
26 | Cc1ccccc1NC(=O)/C(C#N)=C\c1cc(C)n(-c2ccc(C(=O)O)cc2)c1C | 21 µM (inactive) | 4.33 | 76.7 µM | 51.1 µM | 
27 | COc1ccc(Cn2c(C)nc3c(c(=O)c4ccccc4n3C)c2=O)cc1 | > 100 µM (inactive) | < 4.00 | > 100 µM | > 100 µM | 
28 | CCc1ccc2nc(/N=C(\N)NC(=O)c3ccccc3)nc(C)c2c1 |  | 4.65 | > 50 µM | > 100 µM | 5.99
29 | CCN1C(=O)[C@@H]2[C@@H](c3ccc(-c4ccc(Cl)c(Cl)c4)c(OC)c3)N3CCC[C@@]3(C(=O)OC)[C@@H]2C1=O | > 100 µM (inactive) | < 4.00 | > 100 µM | > 100 µM | 
30 | Cc1ccc(C)c(SCc2noc(C(=O)NCC3CCCO3)c2C(=O)O)c1 (stereo not drawn) | 44.3 µM (inactive) | 4.30 | > 100 µM | 48 µM | 
31 | O=C(CN1CCN(c2ccc(F)cc2)CC1)Nc1ccccc1C(=O)NCCc1ccccc1 |  | < 4.00 | > 100 µM | > 100 µM | 4.45
32 | CCCCC(=O)Nc1ccc(NC(=S)NC(=O)CCCCl)cc1OC | > 50 µM (inactive) | 4.02 | > 100 µM | > 50 µM | 
33 | Cc1c(-c2ccccc2)sc(Br)c1C(=O)N1CCOCC1 | > 100 µM (inactive) | < 4.00 | > 100 µM | > 100 µM | 
34 | O=C(CC12CC3CC(CC(C3)C1)C2)NCc1ccc(F)cc1 |  | < 4.00 | > 100 µM | 10.4 µM | 5.13
35 | N#Cc1c(NC(=O)CSc2nc(-c3ccco3)cc(C(F)(F)F)n2)sc2c1CCCC2 | > 100 µM (inactive) | < 4.00 | > 100 µM | > 100 µM | 
36 | COc1ccc(OC)c(NC(=O)CS(=O)(=O)c2ccccc2)c1 | 12.1 µM (inactive) | 4.54 | > 100 µM | 14.3 µM | 
37 | CS/C(N)=N/N=C/c1cc(Br)cc(Br)c1O | 19.7 µM (inactive) | 4.46 | > 100 µM | > 100 µM | 
38 | Cc1ccc(C2=N/C(=C\c3cccc(F)c3)C(=O)O2)cc1 |  | 5.15 | 79.6 µM | 4.02 µM | 5.83

Row | Compound | IC50 | pIC50 [1] | IC90 [2] | IC90 [3] | pIC50
39 | Cc1ccc(-n2c(SCC(=O)OC(C)C)nnc2-c2ccco2)cc1 | 37.6 µM (inactive) | 4.21 | > 100 µM | > 100 µM | 
40 | CCOc1cccc(/C=N/Nc2nc(N3CCCC3)nc(N3CCCC3)n2)c1O | 90.8 µM (inactive) | < 4.00 | > 100 µM | > 100 µM | 
41 | CN(C)S(=O)(=O)c1ccc(C(=O)/C=C/c2cccnc2)cc1 | 5.92 µM (inactive) | 5.03 | 13.9 µM | 12.1 µM | 
42 | O=S1(=O)CCO[C@H]2Cc3ccccc3[C@H]2N1Cc1ccc(F)cc1 | > 100 µM (inactive) | < 4.00 | > 100 µM | > 100 µM | 
43 | COc1cc(C(=O)NNC(=O)c2cc(-c3ccccc3)n[nH]2)cc(OC)c1C |  | < 4.00 | > 100 µM | > 50 µM | 4.71
44 | Cc1nc2sc3c(c2c2nnc(SCC(=O)NCc4ccco4)n12)CCCC3 | 82.6 µM (inactive) | 4.09 | > 100 µM | > 100 µM | 
45 | COc1ccc(NC(=O)CCc2ccccc2)cc1NC(=O)c1ccco1 | > 100 µM (inactive) | < 4.00 | > 100 µM | > 100 µM | 
46 | N#Cc1ccccc1/C=N/Nc1nc(-c2ccccc2)c2cc(Br)ccc2n1 | > 100 µM (inactive) | < 4.00 | > 100 µM | > 100 µM | 
47 | O=C(c1ccccc1)N1CCC(CC2CC(c3cccc(Br)c3)=NO2)(C(=O)NCC2CCCCC2)CC1 (stereo not drawn) | 46.8 µM (inactive) | < 4.00 | > 100 µM | > 100 µM | 
48 | CC(C)Cn1c2c(c(O)c(C(=O)Nc3nccs3)c1=O)CCCC2 |  | 4.34 | 52.4 µM | > 100 µM | 5.49
49 | Cn1nc(-c2ccc(OCC(=O)NCC3CCCO3)cc2)c2ccccc2c1=O (stereo not drawn) | > 100 µM (inactive) | < 4.00 | > 100 µM | > 100 µM | 
50 | C=CCn1c(SCc2ccc(C(=O)Nc3nccs3)cc2)nnc1-c1ccc(C)c(Cl)c1 | 95.3 µM (inactive) | < 4.00 | > 100 µM | > 100 µM | 
51 | Cc1cccc(Nc2nnc(SCC(=O)Nc3ncc(C(F)(F)F)cc3Cl)s2)c1C | 7.31 µM (inactive) | 4.87 | > 100 µM | 21.5 µM | 
52 | COc1ccc(-c2csc(Nc3ccc(C)cn3)n2)cc1OC | 44.3 µM (inactive) | < 4.00 | > 100 µM | > 100 µM | 
53 | O=C(Cn1ncc2c3ccccc3n(Cc3ccccc3F)c2c1=O)NCCCN1CCCC1=O | > 100 µM (inactive) | < 4.00 | > 100 µM | > 100 µM | 
54 | COc1ccc(Cn2c(=O)[nH]c3cc(C(=O)N4CCN(c5ccccc5F)CC4)ccc3c2=O)cc1 | > 100 µM (inactive) | < 4.00 | > 100 µM | > 100 µM | 
55 | Cc1ccc2c(Cl)cc(Cl)c(OCc3c(C)noc3C)c2n1 |  | < 4.00 | > 100 µM | > 100 µM | 4.60
56 | N#C/C(=C(/O)COC(=O)CCc1ccc(S(=O)(=O)N2CCOCC2)cc1)c1nc2ccccc2[nH]1 | 46.4 µM (inactive) | < 4.00 | > 100 µM | > 100 µM | 
57 | CCCCOc1ccc(/C=N/Nc2cc(N3CCOCC3)nc(C)n2)cc1 | > 100 µM (inactive) | < 4.00 | > 100 µM | > 100 µM | 

— PubChem BioAssay AID434987 (Southern Research Specialized Biocontainment Screening …, 2010)
